Test results reported in patent US12122770B1, “2-(benzo[d]oxazol-2-yl)-n'-(nicotinoyloxy)acetimidamide as an antimicrobial compound” (KING FAISAL UNIVERSITY, priority 2023, dated 2024).

Columns and labels:
Escherichia coli = test: Agar plate disc-diffusion, antibacterial activity (inhibition zone); format: cell-based; conditions: Gram negative, DMSO zone subtracted; for inhibition zone, Escherichia coli, A: A = concentration of comp. = 10,000 μL; for inhibition zone, Escherichia coli, B: B = concentration of comp. = 30,000 μL; for inhibition zone, Escherichia coli, C: C = concentration of comp. = 50,000 μL
Protocol: (§1) The agar plate disc-diffusion method was applied. […] The discs were then placed onto the surface of agar plates (nutrient agar for bacteria and Sabouraud's dextrose agar for fungi) seeded with the test organism. Each plate contained 15 mL of the agar medium, previously seeded with 0.2 mL of the broth culture of each organism pregrown for 18 hours. The plates were incubated at 37° C. for 48 hours, and 72 hours for fungi. The inhibition zones was measured in mm. Discs impregnated with DMSO were used as a control, and its inhibition zone was subtracted from the tested compound actual inhibition zone.

Staphylococcus aureus = test: as above; format: cell-based; conditions: Gram positive, DMSO zone subtracted; for inhibition zone, Staphylococcus aureus, A: A = concentration of comp. = 10,000 μL; for inhibition zone, Staphylococcus aureus, B: B = concentration of comp. = 30,000 μL; for inhibition zone, Staphylococcus aureus, C: C = concentration of comp. = 50,000 μL
Protocol: as §1

Bacillus Cereus = test: as above; format: cell-based; conditions: Gram positive, DMSO zone subtracted; for inhibition zone, Bacillus Cereus, A: A = concentration of comp. = 10,000 μL; for inhibition zone, Bacillus Cereus, B: B = concentration of comp. = 30,000 μL; for inhibition zone, Bacillus Cereus, C: C = concentration of comp. = 50,000 μL
Protocol: as §1

Pseudomonas aeruginosa = test: as above; format: cell-based; conditions: Gram negative, DMSO zone subtracted; for inhibition zone, Pseudomonas aeruginosa, A: A = concentration of comp. = 10,000 μL; for inhibition zone, Pseudomonas aeruginosa, B: B = concentration of comp. = 30,000 μL; for inhibition zone, Pseudomonas aeruginosa, C: C = concentration of comp. = 50,000 μL
Protocol: as §1

[1] = system: Chrysosporium keratinophilum; test: Agar plate disc-diffusion, antifungal activity (inhibition zone); format: cell-based; conditions: fungal, 72 hours, DMSO zone subtracted; for inhibition zone, Chrysosporium keratinophilum, A: A = concentration of comp. = 10,000 μL; for inhibition zone, Chrysosporium keratinophilum, B: B = concentration of comp. = 30,000 μL; for inhibition zone, Chrysosporium keratinophilum, C: C = concentration of comp. = 50,000 μL
Protocol: as §1

Aspergillus flavus = test: as above; format: cell-based; conditions: fungal, 72 hours, DMSO zone subtracted; for inhibition zone, Aspergillus flavus, A: A = concentration of comp. = 10,000 μL; for inhibition zone, Aspergillus flavus, B: B = concentration of comp. = 30,000 μL; for inhibition zone, Aspergillus flavus, C: C = concentration of comp. = 50,000 μL
Protocol: as §1

| SMILES | inhibition zone, Escherichia coli, A (Escherichia coli) [mm] | inhibition zone, Escherichia coli, B (Escherichia coli) [mm] | inhibition zone, Escherichia coli, C (Escherichia coli) [mm] | inhibition zone, Staphylococcus aureus, A (Staphylococcus aureus) [mm] | inhibition zone, Staphylococcus aureus, B (Staphylococcus aureus) [mm] | inhibition zone, Staphylococcus aureus, C (Staphylococcus aureus) [mm] | inhibition zone, Bacillus Cereus, A (Bacillus Cereus) [mm] | inhibition zone, Bacillus Cereus, B (Bacillus Cereus) [mm] | inhibition zone, Bacillus Cereus, C (Bacillus Cereus) [mm] | inhibition zone, Pseudomonas aeruginosa, A (Pseudomonas aeruginosa) [mm] | inhibition zone, Pseudomonas aeruginosa, B (Pseudomonas aeruginosa) [mm] | inhibition zone, Pseudomonas aeruginosa, C (Pseudomonas aeruginosa) [mm] | inhibition zone, Chrysosporium keratinophilum, A [1] [mm] | inhibition zone, Chrysosporium keratinophilum, B [1] [mm] | inhibition zone, Chrysosporium keratinophilum, C [1] [mm] | inhibition zone, Aspergillus flavus, A (Aspergillus flavus) [mm] | inhibition zone, Aspergillus flavus, B (Aspergillus flavus) [mm] | inhibition zone, Aspergillus flavus, C (Aspergillus flavus) [mm] | melting point [°C] |
| --- | --- | --- | --- | --- | --- | --- | --- | --- | --- | --- | --- | --- | --- | --- | --- | --- | --- | --- | --- |
| O=C(O)c1cn(C2CC2)c2cc(N3CCNCC3)c(F)cc2c1=O [Cip., ciprofloxacin, reference compound] | 30 | 39 | 60 | 43 | 44 | 53 | 29 | 31 | 42 | 29 | 30 | 53 | 30 | 33 | 55 | 28 | 31 | 43 | – |
| N/C(Cc1nc2ccccc2o1)=N\OC(=O)c1cccnc1 [compound 3, 2-(benzo[d]oxazol-2-yl)-N′-(nicotinoyloxy)acetimidamide] | 26 | 33 | 47 | 28 | 31 | 40 | 26 | 29 | 37 | 23 | 25 | 40 | 26 | 29 | 48 | 21 | 24 | 32 | 155 to 156 |
